Drawing on patent publication US20250114345A1, “COMPOUNDS AND COMPOSITIONS AS CBP/P300 DEGRADERS AND USES THEREOF” (Oncopia Therapeutics, Inc. d/b/a/ SK Life Science Labs, priority 2023, published 2025), this text covers Dmax and DC50 for 18 molecules.

Molecules are shown by their SMILES. Where only a bound is given, the exact number is not on record here.

The Dmax is the largest share of the target that was removed. What is called DC50 is the concentration giving 50% degradation.

The target in the test is T1, p300 (Homo sapiens, UniProt Q09472).
T1 construct: host or cells: A549 P300 HiBit cells
Put plainly: P300 degradation, HiBit technology in A549 P300 HiBit cells (2 h). It is filed as cell-based. To be noted: 2 hrs post treatment; for Dmax: A549, A549 P300 HiBit cells; for DC50: A549 P300 HiBit cells. The gist of the method:
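A549 cells carrying HiBit-tagged p300 or CBP, seeded overnight at 37 °C/5% CO2, then treated with serial compound dilutions from 10 mM DMSO stocks. Incubation was 2 h for p300 and 24 h for CBP, followed by HiBit lytic detection reagent for 10 min at room temperature. Luminescence read gave degradation potency and Dmax.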
For orientation: With HiBiT, luminescence reflects the tagged protein that the partner subunit can reach.

T1 sequence (Q09472 whole entry): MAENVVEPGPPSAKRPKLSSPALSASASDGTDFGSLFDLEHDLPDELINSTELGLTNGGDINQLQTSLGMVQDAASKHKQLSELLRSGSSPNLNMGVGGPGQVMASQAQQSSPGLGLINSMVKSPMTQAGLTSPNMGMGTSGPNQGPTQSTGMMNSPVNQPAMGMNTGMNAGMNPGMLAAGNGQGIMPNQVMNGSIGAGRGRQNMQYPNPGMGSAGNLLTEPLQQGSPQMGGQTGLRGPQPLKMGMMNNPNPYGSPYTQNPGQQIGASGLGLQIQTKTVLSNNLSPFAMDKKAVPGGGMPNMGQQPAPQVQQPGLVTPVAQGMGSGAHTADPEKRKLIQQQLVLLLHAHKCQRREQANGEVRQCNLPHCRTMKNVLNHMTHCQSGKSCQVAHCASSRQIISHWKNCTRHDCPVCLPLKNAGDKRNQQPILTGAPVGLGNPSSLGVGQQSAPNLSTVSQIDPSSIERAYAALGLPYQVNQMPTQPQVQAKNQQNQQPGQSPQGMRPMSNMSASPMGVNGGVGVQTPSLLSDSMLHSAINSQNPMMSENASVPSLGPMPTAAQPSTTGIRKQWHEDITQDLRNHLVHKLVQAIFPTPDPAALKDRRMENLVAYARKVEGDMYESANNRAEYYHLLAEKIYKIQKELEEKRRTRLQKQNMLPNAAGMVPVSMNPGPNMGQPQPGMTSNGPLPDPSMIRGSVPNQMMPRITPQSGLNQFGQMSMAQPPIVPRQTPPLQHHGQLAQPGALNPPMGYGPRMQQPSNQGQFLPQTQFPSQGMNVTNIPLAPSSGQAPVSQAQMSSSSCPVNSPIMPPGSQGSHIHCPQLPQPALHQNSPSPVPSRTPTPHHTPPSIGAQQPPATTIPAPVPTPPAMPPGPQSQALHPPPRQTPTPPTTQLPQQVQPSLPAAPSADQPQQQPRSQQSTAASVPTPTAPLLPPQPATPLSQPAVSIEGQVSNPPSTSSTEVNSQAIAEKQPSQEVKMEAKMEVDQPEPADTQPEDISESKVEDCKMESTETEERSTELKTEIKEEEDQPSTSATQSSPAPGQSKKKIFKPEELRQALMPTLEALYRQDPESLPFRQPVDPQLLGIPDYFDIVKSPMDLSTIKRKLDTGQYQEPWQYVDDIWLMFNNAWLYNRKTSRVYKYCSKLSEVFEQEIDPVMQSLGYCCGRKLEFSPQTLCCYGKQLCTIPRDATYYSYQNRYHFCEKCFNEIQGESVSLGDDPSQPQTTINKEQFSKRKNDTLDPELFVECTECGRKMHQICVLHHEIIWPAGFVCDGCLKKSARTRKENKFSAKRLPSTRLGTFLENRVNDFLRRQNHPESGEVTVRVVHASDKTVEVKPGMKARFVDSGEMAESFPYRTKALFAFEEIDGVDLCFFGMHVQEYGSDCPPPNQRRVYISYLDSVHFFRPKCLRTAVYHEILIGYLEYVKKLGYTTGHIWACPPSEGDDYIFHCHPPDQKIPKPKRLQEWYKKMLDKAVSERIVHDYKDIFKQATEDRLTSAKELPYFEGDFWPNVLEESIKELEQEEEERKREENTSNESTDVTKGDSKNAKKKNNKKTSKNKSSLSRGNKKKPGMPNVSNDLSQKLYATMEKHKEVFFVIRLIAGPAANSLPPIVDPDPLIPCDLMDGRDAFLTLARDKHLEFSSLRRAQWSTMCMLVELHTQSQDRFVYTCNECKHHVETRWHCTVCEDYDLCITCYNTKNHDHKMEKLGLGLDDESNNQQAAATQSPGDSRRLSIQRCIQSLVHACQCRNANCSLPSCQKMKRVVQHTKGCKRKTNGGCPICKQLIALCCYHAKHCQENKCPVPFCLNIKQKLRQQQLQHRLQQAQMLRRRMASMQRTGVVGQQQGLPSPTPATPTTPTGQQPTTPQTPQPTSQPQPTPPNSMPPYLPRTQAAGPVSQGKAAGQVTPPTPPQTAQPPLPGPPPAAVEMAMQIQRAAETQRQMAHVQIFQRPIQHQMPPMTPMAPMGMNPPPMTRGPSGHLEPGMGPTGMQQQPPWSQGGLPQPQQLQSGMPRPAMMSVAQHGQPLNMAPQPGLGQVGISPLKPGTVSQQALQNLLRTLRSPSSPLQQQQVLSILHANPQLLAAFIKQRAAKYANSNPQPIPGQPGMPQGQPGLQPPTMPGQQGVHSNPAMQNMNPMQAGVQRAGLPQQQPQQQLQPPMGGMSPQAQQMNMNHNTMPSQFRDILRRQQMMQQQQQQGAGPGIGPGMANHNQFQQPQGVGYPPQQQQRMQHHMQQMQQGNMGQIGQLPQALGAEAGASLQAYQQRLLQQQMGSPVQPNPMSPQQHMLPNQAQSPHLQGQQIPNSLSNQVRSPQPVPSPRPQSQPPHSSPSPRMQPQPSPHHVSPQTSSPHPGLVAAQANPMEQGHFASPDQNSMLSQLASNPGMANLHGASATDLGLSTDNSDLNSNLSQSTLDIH

For the molecule `CCc1cc(-c2ncc3c(n2)CCCN3c2cc(C3CCOCC3)cc3c2cc(C)c(=O)n3C)cnc1C(=O)NCC#Cc1ccc2occ(C3CCC(=O)NC3=O)c2c1` (stereo not drawn) [Example B144, 5-(5-(1,3-dimethyl-2-oxo-7-(tetrahydro-2H-pyran-4-yl)-1,2-dihydroquinolin-5-yl)-5,6,7,8-tetrahydropyrido[3,2-d]pyrimidin-2-yl)-N-(3-(3-(2,6-dioxopiperidin-3-yl)benzofuran-5-yl)prop-2-yn-1-yl)-3-ethylpicolinamide], the greatest degradation seen (Dmax) is > 80% and the DC50 lay within 1 to 9.9 nM.

Regarding `CCc1cc(N(C)c2ccc(-c3cnc(C(=O)NCC#Cc4cccc(NC5CCC(=O)NC5=O)c4)c(C)c3)c(C)c2)c2cc(C)c(=O)n(C)c2c1` (stereo not drawn) [Example B15, N-(3-(3-((2,6-Dioxopiperidin-3-yl)amino)phenyl)prop-2-yn-1-yl)-5-(4-((7-ethyl-1,3-dimethyl-2-oxo-1,2-dihydroquinolin-5-yl)(methyl)amino)-2-methylphenyl)-3-methylpicolinamide], the Dmax is > 80% and the DC50 was in the range of 10 to 99 nM.

For `Cc1cc(-c2ncc3c(n2)CCCN3c2cccc3c2cc(C)c(=O)n3C)cnc1C(=O)NCC#Cc1ccc2occ(C3CCC(=O)NC3=O)c2c1` (stereo not drawn) [Example B45, 5-(5-(1,3-dimethyl-2-oxo-1,2-dihydroquinolin-5-yl)-5,6,7,8-tetrahydropyrido[3,2-d]pyrimidin-2-yl)-N-(3-(3-(2,6-dioxopiperidin-3-yl)benzofuran-5-yl)prop-2-yn-1-yl)-3-methylpicolinamide], the Dmax was > 80% and the DC50 is 1 to 9.9 nM.

Turning to `COc1cc(-c2cc3cccc(-c4cc(C(C)C)c5c(c4)n(C)c(=O)n5C)c3cn2)cnc1C(=O)NCC#Cc1ccc2c(c1)c(C1CCC(=O)NC1=O)nn2C` (stereo not drawn) [Example A30, N-(3-(3-(2,6-Dioxopiperidin-3-yl)-1-methyl-1H-indazol-5-yl)prop-2-yn-1-yl)-5-(8-(7-isopropyl-1,3-dimethyl-2-oxo-2,3-dihydro-1H-benzo[d]imidazol-5-yl)isoquinolin-3-yl)-3-methoxypicolinamide], the Dmax was > 80% and the DC50 was 1 to 9.9 nM.

For the molecule `CC(C)c1cc(-c2cccc3cc(-c4ccc(C(=O)NCC#Cc5cc6c(cn5)cnn6C5CCC(=O)NC5=O)nc4)ncc23)cc2c1n(C)c(=O)n2C` (stereo not drawn) [Example A6, N-(3-(1-(2,6-Dioxopiperidin-3-yl)-1H-pyrazolo[4,3-c]pyridin-6-yl)prop-2-yn-1-yl)-5-(8-(7-isopropyl-1,3-dimethyl-2-oxo-2,3-dihydro-1H-benzo[d]imidazol-5-yl)isoquinolin-3-yl)picolinamide], the maximal degradation (Dmax) is 60 to 79% and the DC50 lay within 1 to 9.9 nM.

For `Cn1c(=O)n(C)c2cc(N3CCOc4nc(-c5ccc(C(=O)NCC#Cc6ccc7nnn(C8CCC(=O)NC8=O)c7c6)nc5)ncc43)ccc21` (stereo not drawn) [Example A190, 5-(5-(1,3-dimethyl-2-oxo-2,3-dihydro-1H-benzo[d]imidazol-5-yl)-6,7-dihydro-5H-pyrimido[4,5-b][1,4]oxazin-2-yl)-N-(3-(1-(2,6-dioxopiperidin-3-yl)-1H-benzo[d] [1,2,3]triazol-6-yl)prop-2-yn-1-yl)picolinamide], the maximal degradation (Dmax) was 60 to 79% and the DC50 fell in the range of 1 to 9.9 nM.

For `Cn1c(=O)ccc2c(N3CCCc4nc(-c5ccc(C(=O)NCC#Cc6ccc7occ(C8CCC(=O)NC8=O)c7c6)nc5)ncc43)cc(C3CCOCC3)cc21` (stereo not drawn) [Example B105, N-(3-(3-(2,6-dioxopiperidin-3-yl)benzofuran-5-yl)prop-2-yn-1-yl)-5-(5-(1-methyl-2-oxo-7-(tetrahydro-2H-pyran-4-yl)-1,2-dihydro-quinolin-5-yl)-5,6,7,8-tetrahydropyrido[3,2-d]pyrimidin-2-yl)picolinamide], the greatest degradation seen (Dmax) is < 20% and the DC50 was > 1000 nM.

`CCn1c(=O)n(C)c2ccc(N3CCOc4nc(-c5ccc(C(=O)NCC#Cc6ccc7occ(C8CCC(=O)NC8=O)c7c6)nc5)ncc43)cc21` (stereo not drawn) [Example A143, N-(3-(3-(2,6-dioxo-piperidin-3-yl)benzofuran-5-yl)prop-2-yn-1-yl)-5-(5-(3-ethyl-1-methyl-2-oxo-2,3-dihydro-1H-benzo[d]imidazol-5-yl)-6,7-dihydro-5H-pyrimido[4,5-b] [1,4]oxazin-2-yl)picolinamide]: the Dmax was 20 to 39% and the DC50 was 1 to 9.9 nM.

As to `Cc1cc(-c2ncc(N(C)c3cc(C4CCOCC4)c4c(c3)n(C)c(=O)n4C)c(N(C)C)n2)cnc1C(=O)NCC#Cc1cc2c(C3CCC(=O)NC3=O)cccc2o1` (stereo not drawn) [Example A225, 5-(5-((1,3-dimethyl-2-oxo-7-(tetrahydro-2H-pyran-4-yl)-2,3-dihydro-1H-benzo[d]imidazol-5-yl)(methyl)amino)-4-(dimethylamino)pyrimidin-2-yl)-N-(3-(4-(2,6-dioxopiperidin-3-yl)benzofuran-2-yl)prop-2-yn-1-yl)-3-methylpicolinamide], the greatest degradation seen (Dmax) was < 20% and the DC50 was > 1000 nM.

Regarding `Cc1cc2c(N3CCOc4cc(-c5ccc(C(=O)NCC#Cc6ccc7occ(C8CCC(=O)NC8=O)c7c6)nc5)ccc43)cc(C3CCOCC3)cc2n(C)c1=O` (stereo not drawn) [Example B41, 5-(4-(1,3-dimethyl-2-oxo-7-(tetrahydro-2H-pyran-4-yl)-1,2-dihydroquinolin-5-yl)-3,4-dihydro-2H-benzo[b][1,4]oxazin-7-yl)-N-(3-(3-(2,6-dioxopiperidin-3-yl)benzofuran-5-yl)prop-2-yn-1-yl)picolinamide], the Dmax was > 80% and the DC50 was in the range of 1 to 9.9 nM.

For `Cc1cc(N2CCCc3nc(-c4ccc(C(=O)NCC#Cc5ccc6occ(C7CCC(=O)NC7=O)c6c5)nc4)ncc32)cc2c1n(C)c(=O)n2C` (stereo not drawn) [Example A146, N-(3-(3-(2,6-dioxo-piperidin-3-yl)benzofuran-5-yl)prop-2-yn-1-yl)-5-(5-(1,3,7-trimethyl-2-oxo-2,3-dihydro-1H-benzo[d]imidazol-5-yl)-5,6,7,8-tetrahydropyrido [3,2-d]pyrimidin-2-yl)picolinamide], the Dmax was > 80% and the half-maximal degradation concentration (DC50) lay within 1 to 9.9 nM.

The molecule `CCc1cc2c(cc(C)c(=O)n2C)c(N2CCCc3nc(-c4ccc(C(=O)NCC#Cc5ccc6occ(C7CCC(=O)NC7=O)c6c5)nc4)ncc32)n1` (stereo not drawn) [Example B121, N-(3-(3-(2,6-dioxopiperidin-3-yl)benzofuran-5-yl)prop-2-yn-1-yl)-5-(5-(7-ethyl-1,3-dimethyl-2-oxo-1,2-dihydro-1,6-naphthyridin-5-yl)-5,6,7,8-tetrahydropyrido[3,2-d]pyrimidin-2-yl)picolinamide] yielded a Dmax of 40 to 59% and a DC50 of 1 to 9.9 nM.

For `Cn1c(=O)n(C)c2cc(N3CCCc4cc(-c5ccc(C(=O)NCC#Cc6cc7c(C8CCC(=O)NC8=O)cccc7o6)nc5)nnc43)ccc21` (stereo not drawn) [Example A217, 5-(8-(1,3-dimethyl-2-oxo-2,3-dihydro-1H-benzo[d]imidazol-5-yl)-5,6,7,8-tetrahydropyrido[2,3-c]pyridazin-3-yl)-N-(3-(4-(2,6-dioxo-piperidin-3-yl)benzofuran-2-yl)prop-2-yn-1-yl)picolinamide], the Dmax is > 80% and the DC50 fell in the range of 1 to 9.9 nM.

For `Cc1cc2c(N3CCCc4cc(-c5ccc(C(=O)NCC#Cc6ccc7occ(C8CCC(=O)NC8=O)c7c6)nc5)c(F)cc43)cc(C3CCOCC3)cc2n(C)c1=O` (stereo not drawn) [Example B143, N-(3-(3-(2,6-dioxopiperidin-3-yl)benzofuran-5-yl)prop-2-yn-1-yl)-5-(7-fluoro-1′,3′-dimethyl-2′-oxo-7′-(tetrahydro-2H-pyran-4-yl)-1′,2′,3,4-tetrahydro-2H-[1,5′-biquinolin]-6-yl) picolinamide], the greatest degradation seen (Dmax) is > 80% and the DC50 is 1 to 9.9 nM.

For the molecule `CCc1cc(N(C)c2ccc(-c3cnc(C(=O)NCC#Cc4cccc(NC5CCC(=O)NC5=O)c4)c(C)c3)cc2)c2cc(C)c(=O)n(C)c2c1` (stereo not drawn) [Example B18, N-(3-(3-((2,6-Dioxopiperidin-3-yl)amino)phenyl)prop-2-yn-1-yl)-5-(4-((7-ethyl-1,3-dimethyl-2-oxo-1,2-dihydroquinolin-5-yl)(methyl)amino)phenyl)-3-methylpicolinamide], the Dmax is > 80% and the DC50 lay in the range of 10 to 99 nM.

`Cc1cc(-c2ncc(N(C)c3cc(C(C)C)c4c(c3)n(C)c(=O)n4C)cn2)cnc1C(=O)NCC#Cc1ccc2occ(C3CCC(=O)NC3=O)c2c1` (stereo not drawn) [Example A156, N-(3-(3-(2,6-dioxo-piperidin-3-yl)benzofuran-5-yl)prop-2-yn-1-yl)-5-(5-((7-isopropyl-1,3-dimethyl-2-oxo-2,3-dihydro-1H-benzo [d]imidazol-5-yl)(methyl)amino)pyrimidin-2-yl)-3-methylpicolinamide]: the Dmax is > 80% and the DC50 lay within 1 to 9.9 nM.

The molecule `Cc1cc2cnn(C3CCC(=O)NC3=O)c2cc1C#CCNC(=O)c1ccc(-c2cc3cccc(-c4cc(C(C)C)c5c(c4)n(C)c(=O)n5C)c3cn2)cn1` (stereo not drawn) [Example A8, N-(3-(1-(2,6-Dioxopiperidin-3-yl)-5-methyl-1H-indazol-6-yl)prop-2-yn-1-yl)-5-(8-(7-isopropyl-1,3-dimethyl-2-oxo-2,3-dihydro-1H-benzo[d]imidazol-5-yl)isoquinolin-3-yl)picolinamide] gave a Dmax of 60 to 79% and a DC50 of 10 to 99 nM.

Take `Cc1cc(-c2ncc3c(n2)OCCN3c2cc(C)c3c(c2)n(C)c(=O)n3C)cnc1C(=O)NCC#Cc1cc2c(C3CCC(=O)NC3=O)cccc2o1` (stereo not drawn) [Example A241, N-(3-(4-(2,6-dioxo-piperidin-3-yl)benzofuran-2-yl)prop-2-yn-1-yl)-3-methyl-5-(5-(1,3,7-trimethyl-2-oxo-2,3-dihydro-1H-benzo [d]imidazol-5-yl)-6,7-dihydro-5H-pyrimido [4,5-b][1,4]oxazin-2-yl)picolinamide]: the maximal degradation (Dmax) is > 80% and the DC50 was 1 to 9.9 nM.
